Assay results reported in publication PMC11601558, “SLC6A19 inhibition facilitates urinary neutral amino acid excretion and lowers plasma phenylalanine” (JCI Insight, 2024).
“And” between values parts separate entries of the source, which are not always exact repeats. Identical values can stand only once. Like-named read-outs stand apart in the source and are kept apart here.

Legend:
[1] = system: T1, SLC7A5 co-expressed with SLC3A2; assay: SLC7A5 isoleucine transport assay; format: cell-based, human; details: for SLC7A5 transport (Fig S2 curve point): technical replicates
T1 construct: V5; expressed in transfected cells; host or cells: Flp-In T-Rex 293 cells (Thermo Fisher), SLC7A5 tetracycline-induced
Procedure: Supplementary Materials and Methods
Flp-In T-Rex 293 cells (Thermo Fisher) were engineered to induciblyexpress either V5-tagged human SLC1A5, SLC6A8 or SLC7A5 co-expressed with myc-DDK-tagged SLC3A2. Cells expressing SLC 1A5 or SLC6A8 were maintained in either DMEM or DMEM/F12 media supplemented with 10% FBS, 100 U/mL penicillin, 100 μg/mL streptomycin, 200 μg/mL hygromycin, and 10 μg/mL blasticidin. For cells expressing SLC7A5/SLC3A2, the media was additionally supplemented with 300 μg/mL geneticin. All cell lines were maintained at 37°C and 5% CO2. For transport experiments, all cell lines were plated in poly-D-lysine-coated 96-well plates at a density of 35,000 cells/well. One day after plating, expression of SLC1A5, SLC6A8 or SLC7A5 was induced by adding tetracycline at a concentration of 1 μg/mL. Cells were induced for 24 h prior to transport assays. […]
SLC7A5 isoleucine transport assay
Following a 24 h induction with tetracycline, cells were washed with sodium -free LCIS (20 mM HEPES, 140 mM choline chloride, 2.5 mM KCl, 1.8 mM CaCl2, 1 mM MgCl2, pH 7.4) before JNT-517 was added in 8-point concentration-response diluted in sodium-free LCIS. JPH203 (Selleckchem) was used as a positive control (34)at a concentration of 1.3 μM and DMSO was used as a negative control. Cells were incubated for 30 min at room temperature before a mixture of unlabeled L-isoleucine (Millipore Sigma) and 10 μCi/mL 4,5 -3H(N)-labeled L-isoleucine (American Radiolabeled Chemicals) was added at a concentration of 50 μM. After a 2 min incubation at room temperature, cells were washed once with sodium -free LCIS and lysed in scintillation fluid (PerkinElmer). The uptake of radioactive substrate was measured on a Microbeta2 microplate counter (PerkinElmer). […]

[2] = JNT-517 plasma pharmacokinetics in healthy volunteers; format: in vivo, human; details: for half-life / Tmax: human, plasma, oral; for half-life: read-out: Mean T1/2 (converted); for Tmax: min, read-out: Median Tmax
Procedure: The plasma pharmacokinetic profile of JNT-517 was measured using a qualified high-performance LC-MS assay. Blood samples for PK analysis were taken before dosing, and 0.5, 1, 1.5, 2, 2.5, 3, 4, 6, 8, 10, 12, 24, 36, […], and 72 hours after dosing in the SAD study. For the MAD study, blood samples for PK analysis were taken before dosing, and 0.5, 1, 1.5, 2, 2.5, 3, 4, 6, 8, 10, 12, and 24 hours after dosing in the case of once-daily dosing or 0.5, 1, 1.5, 2, 2.5, 3, 4, 6, 8.5, 9 9.5, 10, 10.5, 11, 12, 14, 16, and 24 hours after dosing in the case of twice daily dosing. In addition, predose samples were collected throughout days 3–13. The resulting concentration-time data was evaluated using standard noncompartmental analysis methods, and PK parameters were calculated (Cmax, Tmax, T1/2, AUC0-inf, CL/F, Vd/F).
IC50 values for transport inhibition in cells overexpressing SLC6A19 and TMEM27 were calculated using a 4-parameter logistic regression in Collaborative Drug Discovery (CDD). Reported IC50 values are geometric means of 4–6 independent experiments. For postmortem intestinal transport assays, single outliers of quadruplicate replicates were excluded from the calculation if a signal value’s distance to the mean exceeded 35% of the signal average. The IC50 values of individual experiments were calculated with a 3- or 4-parameter logistic regression using GraphPad Prism 9. The reported IC50 value represents the geometric mean of n = 5 experiments from 3 individual donors. Statistical comparison of urinary Phe excretion in Pah^enu2 mice treated with vehicle or JN-170 was conducted using 1-way analysis of variance (ANOVA) with Tukey’s post hoc comparison. Statistical analysis of baseline-adjusted plasma Phe in mice treated with vehicle or JN-170 was determined by 2-way ANOVA with Dunnett’s post hoc comparison. All statistical analyses were performed using GraphPad Prism 9. For clinical studies, group sizes were not determined based on statistical power calculations. Statistical significance of pharmacodynamic results was not assessed. Values are reported as mean (urinary Phe excretion, T1/2, Cl/F), geometric mean (Cmax/D, AUC0-inf/D), or median (Tmax).

In the case of `NC(=O)N1CCC[C@@H](N(C(=O)NCc2ccc(OC(F)(F)F)cc2F)C2CC2)C1` [JNT-517], the “SLC7A5 transport (Fig S2 curve point)” value ([1]; 0.0160037 uM) is reported as 105 and 96.7, the “SLC7A5 transport (Fig S2 curve point)” value ([1]; 0.048011 uM) is reported as 106 and 104 and the “SLC7A5 transport (Fig S2 curve point)” value ([1]; 0.144033 uM) is reported as 99.2 and 100. The “SLC7A5 transport (Fig S2 curve point)” value ([1]; 0.432099 uM) was 95.2 and 94.5, the “SLC7A5 transport (Fig S2 curve point)” value ([1]; 1.2963 uM) was 99.2 and 103 and the “SLC7A5 transport (Fig S2 curve point)” value ([1]; 3.88889 uM) was 101 and 96.2. For the same molecule, the “SLC7A5 transport (Fig S2 curve point)” value ([1]; 11.6667 uM) was 108 and 105, the “SLC7A5 transport (Fig S2 curve point)” value ([1]; 35 uM) was 133 and 120 and the “inhibition of SLC7A5” value ([1]; concentrations up to 35 μM) was “did not inhibit”. For the same molecule, the “plasma exposure exceeding the in vitro IC75” value ([2]; MAD 150 mg QD) was “approximately 24 hours”, the “accumulation between days 1 and 14” value ([2]; MAD cohorts, dose levels tested) was “no accumulation was observed” and the “Geomean Cmax/D” value ([2]; SAD 10 mg, %CV 23.6) was 45.9 ng/mL/mg. The “Geomean AUC0-inf/D” value ([2]; SAD 10 mg, %CV 66.0) was 340 ng·h/mL/mg, the “Mean Cl/F” value ([2]; SAD 10 mg, SD 1.75) was 3.36 L/h and the “Geomean Cmax/D” value ([2]; SAD 25 mg, %CV 25.5) was 48.5 ng/mL/mg. The “Geomean AUC0-inf/D” value ([2]; SAD 25 mg, %CV 59.0) was 402 ng·h/mL/mg, the “Mean Cl/F” value ([2]; SAD 25 mg, SD 1.27) was 2.78 L/h and the “Geomean Cmax/D” value ([2]; SAD 50 mg, %CV 14.8) was 44.6 ng/mL/mg. The “Geomean AUC0-inf/D” value ([2]; SAD 50 mg, %CV 34.5) was 348 ng·h/mL/mg, the “Mean Cl/F” value ([2]; SAD 50 mg, SD 0.873) was 3.00 L/h and the “Geomean Cmax/D” value ([2]; SAD 100 mg, %CV 13.0) was 35.0 ng/mL/mg. The “Geomean AUC0-inf/D” value ([2]; SAD 100 mg, %CV 42.4) was 239 ng·h/mL/mg, the “Mean Cl/F” value ([2]; SAD 100 mg, SD 2.11) was 4.52 L/h and the “Geomean Cmax/D” value ([2]; SAD 170 mg, %CV 24.9) was 32.9 ng/mL/mg. The “Geomean AUC0-inf/D” value ([2]; SAD 170 mg, %CV 33.6) was 269 ng·h/mL/mg, the “Mean Cl/F” value ([2]; SAD 170 mg, SD 1.15) was 3.87 L/h and the half-life ([2]; SAD 10 mg, %CV 50.2) was 6.37 h. For the same molecule, the Tmax ([2]; SAD 10 mg, max 0.5, 1.07) was 0.75 h, the half-life ([2]; SAD 25 mg, %CV 50.7) was 7.78 h and the Tmax ([2]; SAD 25 mg, max 0.5, 2.0) was 1 h. It also gave a half-life ([2]; SAD 50 mg, %CV 35.4) of 6.17 h, a Tmax ([2]; SAD 50 mg, max 0.5, 2.0) of 0.75 h and a half-life ([2]; SAD 100 mg, %CV 31.9) of 5.89 h. For the same molecule, the Tmax ([2]; SAD 100 mg, max 0.5, 1.5) was 1 h, the half-life ([2]; SAD 170 mg, %CV 24.7) was 6.04 h and the Tmax ([2]; SAD 170 mg, max 0.5, 2.0) was 0.75 h. The “exposure above the in vitro IC75” value ([2]; single 50 mg dose) was over 12 h and the “target coverage exceeding the IC75” value ([2]; single 170 mg dose) was “approximately 24 hours”.
